SMILES strings stand for the structures.

In the first experiment the target is T1, DYRK1A (Homo sapiens (Human), UniProt Q13627). Kind of experiment: DYRK1A kinase inhibition, 33P-ATP filter-binding method. Format: biochemical. Conditions: IC50 grade; head prints μM, key nM. As to the method: Particularly, a substrate was added to a basic reaction buffer (20 mM Hepes (pH 7.5), 10 mM MgCl2, 1 mM EGTA, 0.02% Brij35, 0.02 mg/ml BSA, 0.1 mM Na3VO4, 2 mM DTT, 1% DMSO), to which cofactors necessary for the reaction were added. Then, DYRK1A kinase was added thereto, followed by mixing well. Each compound of Examples was added thereto by using acoustic technology (Echo550; nanoliter range). The mixture was left at room temperature for 20 minutes and then ^33P-ATP (specific activity 10 mCi/ml) was added to initiate the reaction. After reacting at room temperature for 2 hours, spotting was performed on P81 exchange paper. Upon completion of the reaction, kinase activity was detected using a filter-binding method.
Take `CNc1cc(Nc2ccc(C(=O)N3CCOCC3)cc2OC)nc2[nH]cc(C#N)c12` [Example 1, 6-((2-methoxy-4-(morpholine-4-carbonyl)phenyl)amino)-4-(methylamino)-1H-pyrrolo[2,3-b]pyridine-3-carbonitrile]: the IC50 (in general, the concentration that gives 50% inhibition) was above 0.1 µM. On the same count and under the same terms, with `CCNc1cc(Nc2ccc(C(=O)N3CCOCC3)cc2OC)nc2[nH]cc(C#N)c12` [Example 2, 4-(ethylamino)-6-((2-methoxy-4-(morpholine-4-carbonyl)phenyl)amino)-1H-pyrrolo[2,3-b]pyridine-3-carbonitrile] the figure was below 0.01 µM; with `COCCNc1cc(Nc2ccc(C(=O)N3CCOCC3)cc2OC)nc2[nH]cc(C#N)c12` [Example 4, 6-((2-methoxy-4-(morpholine-4-carbonyl)phenyl)amino)-4-((2-methoxyethyl)amino)-1H-pyrrolo[2,3-b]pyridine-3-carbonitrile], above 0.1 µM; with `COCCNc1cc(Nc2cc(OC)c(OC)c(OC)c2)nc2[nH]cc(C#N)c12` [Example 5, 4-((2-methoxyethyl)amino)-6-((3,4,5-trimethoxyphenyl)amino)-1H-pyrrolo[2,3-b]pyridine-3-carbonitrile], 0.01 to 0.1 µM.

`CCCNc1cc(Nc2ccc(C(=O)N3CCOCC3)cc2OC)nc2[nH]cc(C#N)c12` [Example 10, 6-((2-methoxy-4-(morpholine-4-carbonyl)phenyl)amino)-4-(propylamino)-1H-pyrrolo[2,3-b]pyridine-3-carbonitrile] showed an IC50 below 0.01 µM. Same read-out and setting: with `CNc1cc(Nc2ccc(C(=O)N3CCO[C@@H](C)C3)cc2OC)nc2[nH]cc(C#N)c12` [Example 23, (S)-6-((2-methoxy-4-(2-methylmorpholine-4-carbonyl)phenyl)amino)-4-(methylamino)-1H-pyrrolo[2,3-b]pyridine-3-carbonitrile] the figure was above 0.1 µM; with `CCNc1cc(Nc2ccc(C(=O)N3CCO[C@@H](C)C3)cc2OC)nc2[nH]cc(C#N)c12` [Example 27, (S)-4-(ethylamino)-6-((2-methoxy-4-(2-methylmorpholine-4-carbonyl)phenyl)amino)-1H-W pyrrolo[2,3-b]pyridine-3-carbonitrile], above 0.1 µM; with `CCNc1cc(Nc2cc(OC)c(OC)c(OC)c2)nc2[nH]cc(C(F)(F)F)c12` [Example 53, N^4-ethyl-3-(trifluoromethyl)-N^6-(3,4,5-trimethoxyphenyl)-1H-pyrrolo[2,3-b]pyridine-4,6-diamine], 0.01 to 0.1 µM. Same read-out and setting: with `CCNc1cc(Nc2ccc(C(=O)N3CCOCC3)cc2OC)nc2[nH]cc(C(F)(F)F)c12` [Example 56, (4-((4-(ethylamino)-3-(trifluoromethyl)-1H-pyrrolo[2,3-b]pyridin-6-yl)amino)-3-methoxyphenyl) (morpholino)methanone] the figure was below 0.01 µM; with `CNc1cc(Nc2ccc(C(=O)N3CCC(N4CCOCC4)CC3)cc2OC)nc2[nH]cc(C(F)(F)F)c12` [Example 59, (3-methoxy-4-((4-(methylamino)-3-(trifluoromethyl)-1H-pyrrolo[2,3-b]pyridin-6-yl)amino)phenyl) (4-morpholinopiperidin-1-yl)methanone], below 0.01 µM; with `CNc1cc(Nc2cc(F)c(C(=O)N3CCN(C)CC3)cc2OC)nc2[nH]cc(C(F)(F)F)c12` [Example 60, (2-fluoro-5-methoxy-4-((4-(methylamino)-3-(trifluoromethyl)-1H-pyrrolo[2,3-b]pyridin-6-yl)amino)phenyl) (4-methylpiperazin-1-yl)methanone], 0.01 to 0.1 µM. The same measure, in the same setting: the value for `CNc1cc(Nc2ccc(C(=O)N3CCC(N4CCN(C)CC4)CC3)cc2OC)nc2[nH]cc(C(F)(F)F)c12` [Example 61, (3-methoxy-4-((4-(methylamino)-3-(trifluoromethyl)-1H-pyrrolo[2,3-b]pyridin-6-yl)amino)phenyl) (4-(4-methylpiperazin-1-yl)piperidin-1-yl)methanone] was below 0.01 µM; that for `CNc1cc(Nc2ccc(C(=O)N3CCN(C)CC3)cc2OC)nc2[nH]cc(C(F)(F)F)c12` [Example 63, (3-methoxy-4-((4-(methylamino)-3-(trifluoromethyl)-1H-pyrrolo[2,3-b]pyridin-6-yl)amino)phenyl) (4-methylpiperazin-1-yl)methanone] was below 0.01 µM; that for `COCCNc1cc(Nc2ccc(C(=O)N3CCC(N4CCOCC4)CC3)cc2OC)nc2[nH]cc(C(F)(F)F)c12` [Example 65, (3-methoxy-4-((4-((2-methoxyethyl)amino)-3-(trifluoromethyl)-1H-pyrrolo[2,3-b]pyridin-6-yl)amino)phenyl) (4-morpholinopiperidin-1-yl)methanone] was below 0.01 µM.

`COCCNc1cc(Nc2ccc(C(=O)N3CCC(N4CCN(C)CC4)CC3)cc2OC)nc2[nH]cc(C(F)(F)F)c12` [Example 67]: the IC50 was below 0.01 µM.

The test system of a further experiment is Drosophila over-expressing minibrain specifically in wings. Put plainly: wing vein developmental abnormality, Drosophila over-expressing minibrain specifically in wings. Type of experiment: in vivo. The following applies: medium supplemented with compound at 10 μM. The text has this:
To confirm the DYRK1A inhibitory effect of the compound according to the present invention in vivo, wings of the Drosophila model over-expressing minibrain gene specifically in wings were observed. First, in order to produce Drosophila over-expressing minibrain specifically in wings, the UAS-Minibrain transformed Drosophila was mated with the wing specific promoter MS1096-Gal4 transformed Drosophila, resulting in the production of F1 generation. Next, the effect of improving wing defects was confirmed to verify the DYRK1A inhibitory effect of the compound according to the present invention using the Drosophila DYRK1A/minibrain inhibitor discovery model. A medium supplemented with the compound at the concentration of 10 μM was prepared, in which embryos of Drosophila over-expressing minibrain specifically in wings were raised, followed by investigation of wing phenotype.
Regarding `CNc1cc(Nc2ccc(C(=O)N3CCOCC3)cc2OC)nc2[nH]cc(C(F)(F)F)c12` [Example 58, (3-methoxy-4-((4-(methylamino)-3-(trifluoromethyl)-1H-pyrrolo[2,3-b]pyridin-6-yl)amino)phenyl) (morpholino)methanone], the “inhibition of the wing vein developmental abnormality” value is listed as 47.9%. Regarding `CNc1cc(Nc2ccc(N3CCN(C)CC3)cc2OC)nc2[nH]cc(C(F)(F)F)c12` [Example 62, N^6-(2-methoxy-4-(4-methylpiperazin-1-yl)phenyl)-N^4-methyl-3-(trifluoromethyl)-1H-pyrrolo[2,3-b]pyridine-4,6-diamine], the “inhibition of the wing vein developmental abnormality” value amounted to 47.7%. Consider `CNc1cc(Nc2ccc(C(=O)N3CCN(C)CC3)cc2OC)nc2[nH]cc(C(F)(F)F)c12` [Example 63, (3-methoxy-4-((4-(methylamino)-3-(trifluoromethyl)-1H-pyrrolo[2,3-b]pyridin-6-yl)amino)phenyl) (4-methylpiperazin-1-yl)methanone], for which the “inhibition of the wing vein developmental abnormality” value was 43.8%.

Another experiment deals with T1, DYRK1A. Kind of experiment: DYRK1A kinase binding assay using LanthaScreen Eu.
Conditions: not given
(Time-resolved FRET reads energy transfer from a long-lived donor to a nearby acceptor.)
`COCCNc1cc(Nc2ccc(C(=O)N3CCOCC3)cc2OC)nc2[nH]cc(C(F)(F)F)c12` [Example 64, (3-methoxy-4-((4-((2-methoxyethyl)amino)-3-(trifluoromethyl)-1H-pyrrolo[2,3-b]pyridine-6yl)amino)phenyl) (morpholino)methanone] had a 50% inhibitory concentration (IC50) of 10 to 100 nM. The compound `COCCNc1cc(Nc2ccc(C(=O)N3CCN(C)CC3)cc2OC)nc2[nH]cc(C(F)(F)F)c12` [Example 66, (3-methoxy-4-((4-((2-methoxyethyl)amino)-3-(trifluoromethyl)-1H-pyrrolo[2,3-b]pyridin-6-yl)amino)phenyl) (4-methylpiperazin-1-yl)-methanone] registered an IC50 of 10 to 100 nM.

As for `CCNc1cc(Nc2ccc(C(=O)N3CCC(N4CCN(C)CC4)CC3)cc2OC)nc2[nH]cc(C(F)(F)F)c12` [Example 70], the IC50 lay in the range of 10 to 100 nM.

Regarding `COCCNc1cc(Nc2cc(F)c(C(=O)NC3CCN(C)CC3)cc2OC)nc2[nH]cc(C(F)(F)F)c12` [Example 73, 2-fluoro-5-methoxy-4-((4-((2-methoxyethyl)amino)-3-(trifluoromethyl)-1H-pyrrolo[2,3-b]pyridin-6-yl)amino) (1-methylpiperidin-4-yl)benzamide], the IC50 was 10 to 100 nM. On the same count and under the same terms, the value for `CCNc1cc(Nc2cc(F)c(C(=O)NC3CCN(C(C)C)CC3)cc2OC)nc2[nH]cc(C(F)(F)F)c12` [Example 74] was 10 to 100 nM. On the same count and under the same terms, with `COCCN(C)c1cc(Nc2ccc(C(=O)N3CCOCC3)cc2OC)nc2[nH]cc(C(F)(F)F)c12` [Example 87] the figure was 10 to 100 nM. Same read-out and setting: with `COCCN(C)c1cc(Nc2ccc(C(=O)N3CCC(N4CCOCC4)CC3)cc2OC)nc2[nH]cc(C(F)(F)F)c12` [Example 88] the figure was 10 to 100 nM; with `COc1cc(C(=O)N2CCC(N3CCOCC3)CC2)ccc1Nc1cc(NC(C)C)c2c(C(F)(F)F)c[nH]c2n1` [Example 90, (4-(4-(isopropylamino)-3-(trifluoromethyl)-1H-pyrrolo[2,3-b]pyridin-6-ylamino)-3-methoxyphenyl) (4-morpholinopiperidin-1-yl)methanone], 10 to 100 nM; with `COc1cc(C(=O)N2CCC(N3CCOCC3)CC2)ccc1Nc1cc(N[C@@H](CO)C(C)C)c2c(C(F)(F)F)c[nH]c2n1` [Example 91], 10 to 100 nM. Take `COc1cc(C(=O)N2CCOCC2)ccc1Nc1cc(NC2CC2)c2c(C(F)(F)F)c[nH]c2n1` [Example 95, (4-((4-(cyclopropylamino)-3-(trifluoromethyl)-1H-pyrrolo[2,3-b]pyridin-6-yl)amino)-3-methoxyphenyl) (morpholino) methanone]: the IC50 fell in the range of 10 to 100 nM.

The values above are taken from patent US11117892B2, “Pyrrolo-pyridine derivative compound, method for preparing same, and pharmaceutical composition containing same as active ingredient for prevention or treatment of protein kinase-related diseases” (DAEGU-GYEONGBUK MEDICAL INNOVATION FOUNDATION, priority 2017, dated 2021).
